Ends that are not written are not given here. Peptide text beside a SMILES is read from it.

For one assay, the target named is T1, recombinant HLA-DR401 (HLA-DRA1*01:01, HLA-DRB1*04:01) (Homo sapiens, UniProt P01903+P01911, A100K/A169T/F76Y/I96L/K127E/L162R/M171V/N62H/P40V/Q125Y/R42H/S133A/S149N/S66Y/V115G/V209L/W38E).
T1 construct: poly-histidine (C); made in house; host or cells: High Five (Hi5) insect cells, baculovirus (pAcGP67a)
Briefly: biochemical.
Conditions: not given
It counts as binding.
With AAWHGEGSQIGWEEG, the IC50 – broadly, the concentration at which inhibition is half-maximal – amounted to 0.0175 µM.
Turning to AGEYRNDPNNLAYNG, the IC50 stood at 0.0265 µM.
On the same count and under the same terms, as for AAWHNDPACKGWEEG, the figure is 0.0407 µM.
Regarding `CC(C)C[C@H](NC(=O)[C@H](C)NC(=O)[C@H](C)N)C(=O)N[C@@H](CO)C(=O)N[C@@H](CC(C)C)C(=O)N[C@@H](CCC(=O)O)C(=O)N[C@@H](CCCNC(=N)N)C(=O)N[C@@H](CO)C(=O)N[C@@H](CS)C(=O)N[C@@H](CCCCN)C(=O)N[C@@H](CS)C(=O)N[C@@H](Cc1c[nH]c2ccccc12)C(=O)N[C@@H](CCC(=O)O)C(=O)N[C@@H](CCC(=O)O)C(=O)NCC(=O)O` (H-AALSLERSCKCWEEG-OH), the concentration for half-maximal inhibition (IC50) is 0.0249 µM.
Regarding AAANMDTSLPAWEEG, the IC50 came to 0.18 µM.
The same measure, in the same setting: as for AAWVPCGDMVSWEEG, the figure is 0.0265 µM.

The same assay, now with this note: HLA-DR401; fluorescence polarization competition; Fig3B; read-out: Measured IC50.
Regarding `CSCC[C@H](NC(=O)[C@H](CO)NC(=O)[C@H](Cc1ccccc1)NC(=O)[C@H](CC(N)=O)NC(=O)[C@H](C)NC(=O)[C@@H](NC(=O)[C@H](Cc1ccccc1)NC(=O)CNC(=O)[C@H](Cc1ccc(O)cc1)NC(=O)[C@H](CCCNC(=N)N)NC(=O)[C@H](Cc1ccc(O)cc1)NC(=O)[C@H](Cc1ccccc1)NC(=O)[C@H](Cc1ccccc1)NC(=O)[C@@H](N)CO)C(C)C)C(=O)N[C@@H](CCC(=O)O)C(=O)O`, the IC50 is more than 50 µM.

The assay is the same for the next values; noted with them: SuppFig6C; fluorescence polarization competition, HLA-DR401; read-out: Measured IC50.
Take AAEFRNEDGPLGEPG: the IC50 amounted to 0.0799 µM.

The same assay, now with this note: fluorescence polarization peptide competition, HLA-DR401; sheet Fig7; read-out: Measured IC50.
Regarding VYGWATLVSERSKNGMQRIL, the IC50 came out at 0.245 µM.
Turning to WRAPSYILSPELTQRLFSAA, the IC50 is 0.248 µM.
On the same count and under the same terms, to PIPVIFHRIATELRKTNDIN belongs 0.698 µM; to ESSISDKNYWKTVSNAFSVI, 0.0247 µM; to `CC[C@H](C)[C@H](NC(=O)CNC(=O)[C@@H](NC(=O)[C@H](CCSC)NC(=O)CNC(=O)[C@H](CCSC)NC(=O)[C@@H](NC(=O)[C@H](CC(N)=O)NC(=O)[C@H](CC(=O)O)NC(=O)[C@@H](NC(=O)[C@@H]1CCCN1C(=O)[C@H](CCC(=O)O)NC(=O)[C@@H](NC(=O)CNC(=O)[C@H](Cc1c[nH]c2ccccc12)NC(=O)[C@H](CC(N)=O)NC(=O)[C@H](CCC(N)=O)NC(=O)[C@H](Cc1ccccc1)NC(=O)[C@@H](N)CC(C)C)C(C)C)[C@@H](C)CC)C(C)C)[C@@H](C)CC)C(=O)N[C@@H](CC(C)C)C(=O)O`, 2.52 µM.
Still for that read-out and setting: to LLPVKQSVVPLAKGTLITHC belongs 0.307 µM; to `CC[C@H](C)[C@H](NC(=O)[C@H](C)NC(=O)[C@H](CC(=O)O)NC(=O)[C@H](Cc1ccc(O)cc1)NC(=O)[C@H](CC(C)C)NC(=O)[C@@H]1CCCN1C(=O)[C@@H](NC(=O)CNC(=O)[C@@H](N)CCC(=O)O)[C@@H](C)CC)C(=O)N[C@@H](CCCCN)C(=O)N[C@@H](CS)C(=O)N[C@@H](CCSC)C(=O)N[C@@H](CCCNC(=N)N)C(=O)N[C@H](C(=O)N[C@@H](Cc1ccccc1)C(=O)N[C@@H](Cc1ccccc1)C(=O)NCC(=O)N[C@@H](Cc1c[nH]c2ccccc12)C(=O)N[C@@H](CCCCN)C(=O)N[C@@H](CCC(=O)O)C(=O)O)[C@@H](C)O`, 0.0614 µM.

Staying with this assay, now noted: read-out: Measured IC50.
Turning to `CSCC[C@H](NC(=O)[C@H](CO)NC(=O)[C@@H](NC(=O)[C@H](Cc1ccccc1)NC(=O)[C@H](CC(N)=O)NC(=O)[C@@H](NC(=O)[C@@H](N)C(C)C)C(C)C)C(C)C)C(=O)N[C@@H](CCC(=O)O)C(=O)N[C@@H](Cc1ccccc1)C(=O)N[C@@H](CO)C(=O)N[C@@H](CC(C)C)C(=O)N[C@H](C(=O)N[C@@H](CC(=O)O)C(=O)N1CCC[C@H]1C(=O)N[C@@H](CCCNC(=N)N)C(=O)O)[C@@H](C)O`, the IC50 turned out to be 7.97 µM.
The same measure, in the same setting: as for AAGFKGEQGPKGGPG, the figure is 12.1 µM; as for `CSCC[C@H](NC(=O)[C@H](CO)NC(=O)[C@H](Cc1ccccc1)NC(=O)[C@H](CC(N)=O)NC(=O)[C@H](C)NC(=O)[C@@H](NC(=O)[C@H](Cc1ccccc1)NC(=O)CNC(=O)[C@H](Cc1ccc(O)cc1)NC(=O)[C@H](CCCNC(=N)N)NC(=O)[C@H](Cc1ccc(O)cc1)NC(=O)[C@H](Cc1ccccc1)NC(=O)[C@H](Cc1ccccc1)NC(=O)[C@@H](N)CO)C(C)C)C(=O)N[C@@H](CCC(=O)O)C(=O)O`, more than 50 µM.

Source of the values: publication PMC7473865, “Repertoire-scale determination of class II MHC peptide binding via yeast display improves antigen prediction” (Nature Communications, 2020).
